Converted amounts (≈) assume the structure as drawn.
Tests used:
[1] = test system: Escherichia coli NIHJ; experiment: MIC, plate method, standard strains; format: cell-based; conditions: Table 3, standard strain; unit assumed
Summary of the method: (§1)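 Plates of Heart infusion agar (pH 7.4) containing compound dilutions; 10^4-cell inoculum, from 10^6 cells/ml; lowest concentration preventing growth reported.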

[2] = test system: Klebsiella pneumoniae; experiment: MIC, plate method, standard strains; format: cell-based; conditions: Table 3, standard strain; unit assumed
Summary of the method: as §1

[3] = test system: Proteus vulgaris 3027; experiment: MIC, plate method, standard strains; format: cell-based; conditions: Table 3, standard strain; unit assumed
Summary of the method: as §1

[4] = test system: Pseudomonas aeruginosa I.F.O.; experiment: MIC, plate method, standard strains; format: cell-based; conditions: Table 3, standard strain; unit assumed
Summary of the method: as §1

[5] = test system: Staphylococcus aureus 209p; experiment: MIC, plate method, standard strains; format: cell-based; conditions: Table 3, standard strain, Heart infusion agar pH 7.4; unit assumed
Summary of the method: as §1

[6] = test system: Staphylococcus aureus; experiment: MIC against clinical isolates; format: cell-based; conditions: Table 5-1, clinical isolate; unit assumed
[7] = test system: Escherichia coli; experiment: MIC against clinical isolates; format: cell-based; conditions: Table 5-2, clinical isolate; unit assumed
[8] = test system: Pseudomonas aeruginosa; experiment: MIC against clinical isolates; format: cell-based; conditions: unit assumed; for MIC Pseudomonas neruginosa S-1 / MIC Pseudomonas neruginosa S-2 / MIC Pseudomonas neruginosa S-3 / MIC Pseudomonas neruginosa S-4: Table 5-4, clinical isolate
[9] = test system: Klebsiella pneumoniae; experiment: MIC against clinical isolates; format: cell-based; conditions: Table 5-4, clinical isolate; unit assumed
[10] = test system: Shigella flexneri; experiment: MIC against clinical isolates; format: cell-based; conditions: Table 5-5, clinical isolate; unit assumed
Protocol: (§2) The minimum inhibitory concentration (MIC) was determined by the plate method disclosed in "Chemotherapy" (Japan), Vol. 16, (1968), pages 98-99. The culture medium used was a Heart infusion agar (pH 7.4). The number of the cells per plate used in the inoculum was 10^4 (10^6 cells/ml).
(§3) MIC was determined in the same manner as in the preceding paragraph (1).

[11] = test system: Shigella sonnei; experiment: MIC against clinical isolates; format: cell-based; conditions: Table 5-5, clinical isolate; unit assumed
Protocol: as §2, §3

[12] = test system: Salmonella typhi-murium; experiment: MIC against clinical isolates; format: cell-based; conditions: Table 5-5, clinical isolate; unit assumed
[13] = test system: Proteus mirabilis; experiment: MIC against clinical isolates; format: cell-based; conditions: Table 5-6, clinical isolate; unit assumed
[14] = test system: Proteus morganii; experiment: MIC against clinical isolates; format: cell-based; conditions: Table 5-6, clinical isolate; unit assumed
[15] = test system: Proteus vulgaris; experiment: MIC against clinical isolates; format: cell-based; conditions: Table 5-6, clinical isolate; unit assumed
[16] = test system: β-lactamase, Pseudomonas aeruginosa GN 238; experiment: Resistant activity against β-lactamase, iodometric assay; format: biochemical; conditions: β-lactamase from Pseudomonas aeruginosa GN 238; Potassium Penicillin G = 100
Summary of the method: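 Crude β-lactamase was the sonicated-cell supernatant from P. aeruginosa GN 238, grown 6 h at 37 °C and washed in 0.1 M phosphate pH 7.0. Compound stability to the enzyme measured iodometrically; values are relative activity with potassium penicillin G set at 100.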

[17] = test system: Proteus rettgeri; experiment: MIC against clinical isolates; format: cell-based; conditions: Table 5-6, clinical isolate; unit assumed

CCCCCCN1CCN(C(=O)NC(C(=O)NC2C(=O)N3C2SC(C)(C)C3C(=O)O)c2ccccc2)C(=O)C1=O (single isomer, unassigned) [Compound 46]
MIC Esche--richin coil NIHJ [1]: < 0.1 µg/mL
MIC Klebsiella pneumoniae [2]: 0.4 µg/mL (≈ 0.697 µM)
MIC Proteus vulgaris 3027 [3]: 0.4 µg/mL (≈ 0.697 µM)
MIC Pseudomonas aeruginosa I.F.C [4]: 6.25 µg/mL (≈ 10.9 µM)
MIC Staphylococcus aureus 209p [5]: 0.2 µg/mL (≈ 0.349 µM)
MIC Staphylococcus aureus F-1 [6]: 6.25 µg/mL (≈ 10.9 µM)
MIC Staphylococcus aureus F-2 [6]: 1.57 µg/mL (≈ 2.74 µM)
MIC Staphylococcus aureus F-4 [6]: 6.25 µg/mL (≈ 10.9 µM)
MIC Staphylococcus aureus F-5 [6]: > 200 µg/mL
MIC Staphylococcus aureus MS 8588 [6]: 1.57 µg/mL (≈ 2.74 µM)
MIC Staphylococcus aureus MS 8619 [6]: < 0.4 µg/mL
MIC Staphylococcus aureus MS 8684 [6]: 1.57 µg/mL (≈ 2.74 µM)
MIC Staphylococcus aureus MS 8713 [6]: 6.25 µg/mL (≈ 10.9 µM)
MIC Escherichia coli GN 3435 [7]: < 0.4 µg/mL
MIC Escherichia coli GN 3465 [7]: 6.25 µg/mL (≈ 10.9 µM)
MIC Escherichia coli GN 3611 [7]: > 200 µg/mL
MIC Escherichia coli K-3 [7]: 50 µg/mL (≈ 87.2 µM)
MIC Escherichia coli K-4 [7]: < 0.4 µg/mL
MIC Pseudomonas aeruginosa GN ([8]; Table 5-3, clinical isolate, strain number not given): 12.5 µg/mL (≈ 21.8 µM)
MIC Pseudomonas aeruginosa GN 82 ([8]; Table 5-3, clinical isolate): 6.25 µg/mL (≈ 10.9 µM)
MIC Pseudomonas aeruginosa GN 163 ([8]; Table 5-3, clinical isolate): 6.25 µg/mL (≈ 10.9 µM)
MIC Pseudomonas aeruginosa GN 221 ([8]; Table 5-3, clinical isolate): 12.5 µg/mL (≈ 21.8 µM)
MIC Pseudomonas aeruginosa GN 1035 ([8]; Table 5-3, clinical isolate): 50 µg/mL (≈ 87.2 µM)
MIC Pseudomonas aeruginosa GN 1091 ([8]; Table 5-3, clinical isolate): 12.5 µg/mL (≈ 21.8 µM)
MIC Pseudomonas aeruginosa GN 2565 ([8]; Table 5-3, clinical isolate): 12.5 µg/mL (≈ 21.8 µM)
MIC Pseudomonas aeruginosa GN 2987 ([8]; Table 5-3, clinical isolate): 6.25 µg/mL (≈ 10.9 µM)
MIC Pseudomonas neruginosa S-1 [8]: 50 µg/mL (≈ 87.2 µM)
MIC Pseudomonas neruginosa S-2 [8]: 50 µg/mL (≈ 87.2 µM)
MIC Pseudomonas neruginosa S-3 [8]: 50 µg/mL (≈ 87.2 µM)
MIC Pseudomonas neruginosa S-4 [8]: 50 µg/mL (≈ 87.2 µM)
MIC Klebsiella pneumoniae GN 3850 [9]: 1.57 µg/mL (≈ 2.74 µM)
MIC Klebsiella pneumoniae GN 4081 [9]: 12.5 µg/mL (≈ 21.8 µM)
MIC Klebsiella pneumoniae GN 4117 [9]: 12.5 µg/mL (≈ 21.8 µM)
MIC Shigella flexneri JS 11215 [10]: 6.25 µg/mL (≈ 10.9 µM)
MIC Shigella flexneri JS 11839 [10]: 0.79 µg/mL (≈ 1.38 µM)
MIC Shigella sonnei JS 11232 [11]: 12.5 µg/mL (≈ 21.8 µM)
MIC Shigella sonnei JS 11755 [11]: 0.79 µg/mL (≈ 1.38 µM)
MIC Salmonella typhi-murium SL 858 [12]: < 0.4 µg/mL
MIC Salmonella typhi-murium SL 2136 [12]: 50 µg/mL (≈ 87.2 µM)
MIC Proteus mirabilis [13]: < 0.4 µg/mL
MIC Proteus morganii [14]: < 0.4 µg/mL
MIC Proteus vulgaris [15]: < 0.4 µg/mL
Relative activity (%), resistant activity against β-lactamase [16]: 12%

CCCCCCCCN1CCN(C(=O)N[C@@H](C(=O)N[C@@H]2C(=O)N3[C@@H]2SC(C)(C)[C@@H]3C(=O)O)c2ccccc2)C(=O)C1 [Compound 16]
MIC Esche--richin coil NIHJ [1]: < 1.57 µg/mL
MIC Klebsiella pneumoniae [2]: 1.57 µg/mL (≈ 2.67 µM)
MIC Proteus vulgaris 3027 [3]: < 1.57 µg/mL
MIC Staphylococcus aureus 209p [5]: < 1.57 µg/mL
MIC Staphylococcus aureus F-1 [6]: 6.25 µg/mL (≈ 10.6 µM)
MIC Staphylococcus aureus F-4 [6]: 6.25 µg/mL (≈ 10.6 µM)
MIC Staphylococcus aureus MS 8588 [6]: 3.13 µg/mL (≈ 5.33 µM)
MIC Staphylococcus aureus MS 8596 [6]: 3.13 µg/mL (≈ 5.33 µM)
MIC Staphylococcus aureus MS 8684 [6]: 3.13 µg/mL (≈ 5.33 µM)
MIC Staphylococcus aureus MS 8713 [6]: 3.13 µg/mL (≈ 5.33 µM)
MIC Escherichia coli GN 3435 [7]: 1.57 µg/mL (≈ 2.67 µM)
MIC Escherichia coli GN 3452 [7]: 1.57 µg/mL (≈ 2.67 µM)
MIC Escherichia coli GN 3481 [7]: 3.13 µg/mL (≈ 5.33 µM)
MIC Escherichia coli K-1 [7]: 1.57 µg/mL (≈ 2.67 µM)
MIC Escherichia coli K-2 [7]: 3.13 µg/mL (≈ 5.33 µM)
MIC Escherichia coli K-4 [7]: 3.13 µg/mL (≈ 5.33 µM)
MIC Pseudomonas aeruginosa GN 82 ([8]; Table 5-3, clinical isolate): 6.25 µg/mL (≈ 10.6 µM)
MIC Pseudomonas aeruginosa GN 2987 ([8]; Table 5-3, clinical isolate): 3.13 µg/mL (≈ 5.33 µM)
MIC Klebsiella pneumoniae GN 3850 [9]: 3.13 µg/mL (≈ 5.33 µM)
MIC Shigella flexneri JS 11215 [10]: 6.25 µg/mL (≈ 10.6 µM)
MIC Shigella flexneri JS 11839 [10]: 0.79 µg/mL (≈ 1.34 µM)
MIC Shigella sonnei JS 11232 [11]: 6.25 µg/mL (≈ 10.6 µM)
MIC Shigella sonnei JS 11755 [11]: 1.57 µg/mL (≈ 2.67 µM)
MIC Proteus rettgeri [17]: 6.25 µg/mL (≈ 10.6 µM)

CCCCCCCCN1CCN(C(=O)NC(C(=O)NC2C(=O)N3C2SC(C)(C)C3C(=O)O)c2ccccc2)C(=O)C1=O (single isomer, unassigned) [Compound No. 47]
MIC Esche--richin coil NIHJ [1]: < 1.57 µg/mL
MIC Klebsiella pneumoniae [2]: < 1.57 µg/mL
MIC Proteus vulgaris 3027 [3]: < 1.57 µg/mL
MIC Pseudomonas aeruginosa I.F.C [4]: 6.25 µg/mL (≈ 10.4 µM)
MIC Staphylococcus aureus 209p [5]: < 1.57 µg/mL
MIC Staphylococcus aureus F-1 [6]: 6.25 µg/mL (≈ 10.4 µM)
MIC Staphylococcus aureus F-2 [6]: 1.57 µg/mL (≈ 2.61 µM)
MIC Staphylococcus aureus F-3 [6]: 1.57 µg/mL (≈ 2.61 µM)
MIC Staphylococcus aureus F-5 [6]: > 200 µg/mL
MIC Staphylococcus aureus MS 8588 [6]: 3.13 µg/mL (≈ 5.2 µM)
MIC Staphylococcus aureus MS 8596 [6]: 3.13 µg/mL (≈ 5.2 µM)
MIC Staphylococcus aureus MS 8619 [6]: < 0.4 µg/mL
MIC Staphylococcus aureus MS 8684 [6]: 3.13 µg/mL (≈ 5.2 µM)
MIC Staphylococcus aureus MS 8713 [6]: 6.25 µg/mL (≈ 10.4 µM)
MIC Escherichia coli GN 3452 [7]: 1.57 µg/mL (≈ 2.61 µM)
MIC Escherichia coli GN 3465 [7]: 6.25 µg/mL (≈ 10.4 µM)
MIC Escherichia coli GN 3481 [7]: 1.57 µg/mL (≈ 2.61 µM)
MIC Escherichia coli GN 3611 [7]: > 200 µg/mL
MIC Escherichia coli K-1 [7]: 1.57 µg/mL (≈ 2.61 µM)
MIC Escherichia coli K-2 [7]: 1.57 µg/mL (≈ 2.61 µM)
MIC Escherichia coli K-3 [7]: 100 µg/mL (≈ 166 µM)
MIC Pseudomonas aeruginosa GN 376 ([8]; Table 5-3, clinical isolate): 50 µg/mL (≈ 83.1 µM)
MIC Pseudomonas aeruginosa GN 383 ([8]; Table 5-3, clinical isolate): 50 µg/mL (≈ 83.1 µM)
MIC Pseudomonas neruginosa S-1 [8]: 50 µg/mL (≈ 83.1 µM)
MIC Pseudomonas neruginosa S-2 [8]: 50 µg/mL (≈ 83.1 µM)
MIC Pseudomonas neruginosa S-3 [8]: 50 µg/mL (≈ 83.1 µM)
MIC Pseudomonas neruginosa S-4 [8]: 50 µg/mL (≈ 83.1 µM)
MIC Klebsiella pneumoniae GN 917 [9]: 1.57 µg/mL (≈ 2.61 µM)
MIC Klebsiella pneumoniae GN 3850 [9]: 3.13 µg/mL (≈ 5.2 µM)
MIC Shigella flexneri JS 11215 [10]: 6.25 µg/mL (≈ 10.4 µM)
MIC Shigella flexneri JS 11839 [10]: 1.57 µg/mL (≈ 2.61 µM)
MIC Shigella sonnei JS 11232 [11]: 6.25 µg/mL (≈ 10.4 µM)
MIC Shigella sonnei JS 11755 [11]: 0.79 µg/mL (≈ 1.31 µM)
MIC Salmonella typhi-murium SL 858 [12]: < 0.4 µg/mL
MIC Salmonella typhi-murium SL 2136 [12]: 50 µg/mL (≈ 83.1 µM)
MIC Proteus mirabilis [13]: < 0.4 µg/mL
MIC Proteus morganii [14]: < 0.4 µg/mL
MIC Proteus vulgaris [15]: < 0.4 µg/mL
Relative activity (%), resistant activity against β-lactamase [16]: 1%
